Assay results reported in US6190849A, “Photographic element containing ballasted tetrazole derivative and inhibitor releasing coupler” (priority 1999, dated 2001).

Legend:
[1] = Contrast (gamma) reduction by DI(A)R in single layer film element, C-41 process; details: DIR at 0.055 mmol/m^2, relative to non-inhibitor containing check; KODAK FLEXICOLOR (C-41)
Excerpt: The mild inhibitor fragments that are used in this invention are defined as those that cause less than a 45% gamma reduction, or more preferably less than a 40% gamma reduction, relative to a non-inhibitor containing check when coated as the following single layer film element on a cellulose triacetate film support (coverages are in g/m^2): […]
Overcoat Gelatin at 2.79 and 0.02 bis-vinylsulfonemethylether
Imaging Layer Gelatin at 2.79
Magenta Image Coupler M-1 (dispersed at 80% by
weight in tricresyl phosphate and 20% by weight
N,N-dibutyl-2-butoxy-5-t-octylaniline) at 0.692
DIR being tested at 0.055 mmol/m^2 (dispersed in twice
its weight in N,N-dibutyllauramide)
Green sensitized AgBrI at 1.08
Samples of each element were given a stepped exposure and processed in the KODAK FLEXICOLOR (C-41) process as described in British Journal of Photography Annual, 1988, pp 196-198. Contrast of the elements was determined using the maximum slope between any two density points.

[2] = Interimage in multilayer format (density change of receiver record); details: Table IV; IEM in green layer
Excerpt: Multilayer Film Example ML-1:
Layer 1 (Antihalation layer): black collodial silver sol at 0.135; ILS-1 at 0.162,
Layer 2 (Slow cyan layer): a blend of two red sensitized (both with a mixture of RSD-1 and RSD-2) tabular silver iodobromide emulsions: (i) 0.66×0.12, 4.1 mole % I at 0.302 (ii) 0.55×0.08, 1.5 mole % I at 0.464; cyan dye-forming coupler C-1 at 0.535; DIR coupler CDIR-1 at 0.027; bleach accelerator releasing coupler B-1 at 0.057; masking coupler MC-1 at 0.032; and gelatin at 1.68.
Layer 3 (Mid cyan layer): a blend of two red sensitized (same as above) tabular silver iodobromide emulsions: (i) […], 4.1 mole % I at 0.194 (ii) 1.07×0.11, 4.1 mole % I at 0.238; cyan coupler C-1 at 0.171; CDIR-1 at 0.019; MC-1 at 0.032; B-1 at 0.008; and gelatin at 1.08.
Layer 4 (Fast cyan layer): a red sensitized (same as above) tabular silver iodobromide emulsion (1.33×0.12, 4.1 mole % I) at 0.594; C-1 at 0.184; CDIR-1 at 0.027; MC-1 at 0.022; and gelatin at 0.918.
Layer 5 (Interlayer): ILS-1 at 0.086 and gelatin at 0.540.
Layer 6 (Slow magenta layer): a blend of two green sensitized (both with a mixture of GSD-1 and GSD-2) silver iodobromide emulsions: (i) 0.81×0.12, 2.6 mole % iodide at 0.346 and (ii) 0.55×0.08, 1.5 mole % iodide at 0.130; magenta dye forming coupler M-1 at 0.270; MC-2 at 0.086; IDIR-5 at 0.011; and gelatin at 1.08.
Layer 7 (Mid magenta layer): a blend of two green sensitized (same as above) tabular silver iodobromide emulsions (i) 1.22×0.11, 4.1 mole % I at 0.248 and (ii) 1.07×0.11, 4.1 mole % I at 0.248; M-1 at 0.124; MC-2 at 0.119; IDIR-5 at 0.043; OxDS-2 at 0.016; and gelatin at 1.22.
Layer 8 (Fast magenta layer): a green sensitized tabular silver iodobromide (1.33×0.12, 4.1 mole % I) emulsion at 0.486; M-1 at 0.076; MC-2 at 0.054; B-1 at 0.003; IDIR-5 at 0.015; OxDS-2 at 0.009; and gelatin at 1.02.
Layer 9 (Yellow filter layer): yellow filter dye FD-1 at 0.054; ILS-1 at 0.086; and gelatin at 0.648.
Layer 10 (Slow yellow layer): a blend of three blue sensitized (all with a mixture of BSD-1 and BSD-2) tabular silver iodobromide emulsions (i) 0.55×0.08, 1.5 mole % I at 0.270 (ii) […], 1.5 mole % I at 0.248 and (iii) 1.25×0.14, 4.1 mole % I at 0.400; yellow dye forming coupler Y-2 at 1.08; IDIR-6 at 0.076; CDIR-1 at 0.032; B-1 at 0.022; and gelatin at 1.879.
Layer 11 (Fast yellow layer): a blend of two blue sensitized (both with a mixture of BSD-1 and BSD-2) tabular silver iodobromide emulsions (i) 1.25×0.14, 4.1 mole % I at 0.108 (ii) 2.67×0.13, 4.1 mole % I at 0.378; Y-2 at 0.238; IDIR-6 at 0.076; B-1 at 0.005; and gelatin at 0.810.
Layer 12 (Protective overcoat and UV filter layer): silver bromide Lippman emulsion at 0.216; UV-1 at a total of 0.108; gelatin at 1.242 and bis(vinylsulfonyl)methane hardener at 1.75% of total gelatin weight.
Surfactants, coating aids, emulsion addenda, sequestrants, thickeners, lubricants, matte and tinting dyes were added to the appropriate layers as is common in the art. […]
These multilayer coatings were given a stepped exposure in one color record but only flashed (non-imagewise exposure) in the other two records and processed as described for the bilayer experiments. To monitor interimage, a step nearest to density of 1.5 in the stepped color record (the causer) was chosen, and the difference in density of the other color records (the receivers) at that step and at the no exposure step of the causer was determined. […]

[3] = Interimage in bilayer format: IDIR-2 in blue layer, IEM in green layer; details: for Cg /Cb+g (interimage): IEM or CIEM in green layer at 7.2×10^-3 mmol/m^2, higher ratio = more interimage, no-IEM check; for Relative Speed (green layer): IEM or CIEM in green layer, speed point +0.15 density above Dmin, normalized to check
Method: Bilayer photographic elements were prepared by coating the following layers on a cellulose triacetate film support (coverages are in g/m^2). Unless otherwise noted, all comparative and inventive compounds were dispersed in twice their own weight of N,N-dibutyllauramide: […] Layer 3 (Interlayer): gelatin at 0.64, ILS-1 at 0.11 and FD-1 at 0.11. […] Layer 5 (Overcoat): gelatin at 2.79 and 0.02 bis-vinylsulfonemethylether. […] Contrast of the elements was determined using the maximum slope between any two density points. In this test, the ratio of the contrast of the green only exposure to the contrast of the green of a blue and green exposure (Cg /Cb+g) is a measure of the interimage. A higher ratio means more inhibition originating from the blue and affecting the green record. Relative speed of the green layer was determined by measuring the speed point +0.15 density units above Dmin and normalizing to the check position.

Structure (SMILES): CCCCCCCCCCCCCCOc1ccccc1NC(=O)c1cc(Oc2ccc(CSc3nnnn3Cc3ccc(OC)cc3)cc2[N+](=O)[O-])c2ccccc2c1O [CDIR-1]
- % Contrast Reduction [1]: -55.4%
- interimage, in words [2]: Interimage is not increased

Structure (SMILES): CCC(Oc1ccc(C(C)(C)CC)cc1C(C)(C)CC)C(=O)Nc1ccc(N2N=C(N3CCCC3)C(Sc3nnnn3-c3ccccc3)C2=O)cc1 (centres unmarked) [CDIR-2]
- % Contrast Reduction [1]: -67.1%

Structure (SMILES): CCCCCCCCCCCCCCOc1ccccc1NC(=O)c1cc(Oc2ccc([N+](=O)[O-])cc2CN(C(=O)Sc2nnnn2-c2ccccc2)C(C)C)c2ccccc2c1O [CDIR-3]
- % Contrast Reduction [1]: -75.7%

Structure (SMILES): CCCCCCCCCCCCCCOc1ccccc1NC(=O)c1cc(Oc2ccc(CSc3nnnn3-c3ccccc3)cc2[N+](=O)[O-])c2ccccc2c1O [CDIR-4]
- % Contrast Reduction [1]: -77.1%

Structure (SMILES): CCCCCCCCCCCCCCOc1ccccc1NC(=O)c1cc(Oc2ccc(CSc3nnnn3-c3ccccc3)cc2[N+](=O)[O-])c2ccccc2c1O [CDIR-5]
- % Contrast Reduction [1]: -70.5%

Structure (SMILES): CCCCCCCCCCCCCCOc1ccccc1NC(=O)c1cc(Sc2nnnn2-c2ccccc2)c2ccccc2c1O [CDIR-6]
- % Contrast Reduction [1]: -75.4%

Structure (SMILES): CCCCCCCCCCCCCCCCS(=O)(=O)Nc1ccc(Cl)c(NC(=O)C(Oc2ccc([N+](=O)[O-])cc2CN(CC)C(=O)Sc2nnnn2-c2ccccc2)C(=O)C(C)(C)C)c1 (centres unmarked) [CDIR-7]
- % Contrast Reduction [1]: -63.9%

Structure (SMILES): CCCCCCOC(=O)c1nn(C2C(=O)N(c3ccc(NC(=O)C(CC)Oc4ccc(C(C)(C)CC)cc4C(C)(C)CC)cc3)N=C2C)nc1C (centres unmarked) [CDIR-8]
- % Contrast Reduction [1]: -49.2%

Structure (SMILES): CCCCCCCCCCC(Oc1ccc(S(=O)(=O)c2ccc(O)cc2)cc1)C(=O)Nc1ccc(N2N=C(C)C(n3nc(C)c(C(=O)OCCCCCC)n3)C2=O)cc1 (centres unmarked) [CDIR-9]
- % Contrast Reduction [1]: -50.1%

Structure (SMILES): CCCCCCCCCCCCCCCCS(=O)(=O)Nc1ccc(Cl)c(NC(=O)C(C(=O)C(C)(C)C)n2nc(C)c(C(=O)OCCCCCC)n2)c1 (centres unmarked) [CDIR-10]
- % Contrast Reduction [1]: -53.8%

Structure (SMILES): CCCCCCCCCCCCCCCCS(=O)(=O)Nc1ccc(Cl)c(NC(=O)C(C(=O)C(C)(C)C)n2ncc(SCC(=O)OCCCCCC)n2)c1 (centres unmarked) [CDIR-11]
- % Contrast Reduction [1]: -58.6%

Structure (SMILES): S=c1[nH]nnn1-c1ccccc1 [CIEM-2]
- Cg /Cb+g (interimage) [3]: 1.44
- Relative Speed (green layer) [3]: 0.91

Structure (SMILES): O=C(O)Cn1nn[nH]c1=S [CIEM-3]
- Cg /Cb+g (interimage) [3]: 1.23
- Relative Speed (green layer) [3]: 0.99

Structure (SMILES): CCn1nn[nH]c1=S [CIEM-4]
- Cg /Cb+g (interimage) [3]: 1.22
- Relative Speed (green layer) [3]: 1.00

Structure (SMILES): CCn1nn[nH]c1=S [CIEM-5]
- Cg /Cb+g (interimage) [3]: 1.23
- Relative Speed (green layer) [3]: 1.00

Structure (SMILES): CCC(C)OC(=O)C(CCSC)n1nn[nH]c1=S (centres unmarked) [CIEM-6]
- Cg /Cb+g (interimage) [3]: 1.72
- Relative Speed (green layer) [3]: 0.90

Structure (SMILES): CSCC(CSC)OC(=O)CCn1nn[nH]c1=S [CIEM-7]
- Cg /Cb+g (interimage) [3]: 1.45
- Relative Speed (green layer) [3]: 0.90

Structure (SMILES): CSCC(=O)Nc1cccc(-n2nn[nH]c2=S)c1 [CIEM-8]
- Cg /Cb+g (interimage) [3]: 1.47
- Relative Speed (green layer) [3]: 0.92

Structure (SMILES): O=C(O)c1ccc(-n2nn[nH]c2=S)cc1 [CIEM-9]
- Cg /Cb+g (interimage) [3]: 1.21
- Relative Speed (green layer) [3]: 1.00

Structure (SMILES): CCCCCCCCCCCCCCCCS(=O)(=O)Nc1cc(CSc2nnnn2CC(=O)OCCC)ccc1Oc1cc(C(N)=O)c(O)c2ccccc12 [IDIR-1]
- % Contrast Reduction [1]: -34.5%

Structure (SMILES): CCCCCCCCCCCCCCCCS(=O)(=O)Nc1ccc(Cl)c(NC(=O)C(Oc2ccc([N+](=O)[O-])cc2CN(CC)C(=O)Sc2nnnn2CC(=O)OCCC)C(=O)C(C)(C)C)c1 (centres unmarked) [IDIR-2]
- % Contrast Reduction [1]: -25.3%

Structure (SMILES): CCCCCCCCCCCCOc1ccc(C)cc1NC(=O)c1cc(Oc2ccc(CSc3nnnn3CC(=O)OCCC)cc2[N+](=O)[O-])c2ccccc2c1O [IDIR-3]
- % Contrast Reduction [1]: -24.5%

Structure (SMILES): CCCOC(=O)Cn1nnnc1SC1C(=O)N(c2ccc(NC(=O)C(CC)Oc3ccc(C(C)(C)CC)cc3C(C)(C)CC)cc2)N=C1N1CCCC1 (centres unmarked) [IDIR-4]
- % Contrast Reduction [1]: -22.6%

Structure (SMILES): CCCCCCCCCCCCOC(=O)C(C)OC(=O)c1ccc(Cl)c(NC(=O)C(C(=O)Nc2cc(C(=O)OC(C)C(=O)OCCCCCCCCCCCC)ccc2Cl)n2nnc3cc(Cl)c(Cl)cc32)c1 (centres unmarked) [IDIR-7]
- % Contrast Reduction [1]: -20.0%

Structure (SMILES): CCCCCCCCCCCCCCOc1ccccc1NC(=O)c1cc(Sc2nnnn2CC)c2ccccc2c1O [IDIR-8]
- % Contrast Reduction [1]: -2.4%

Structure (SMILES): O=C(CSCCn1nn[nH]c1=S)OC1CCCCC1 [IEM-3]
- Cg /Cb+g (interimage) [3]: 1.85
- Relative Speed (green layer) [3]: 0.91

Structure (SMILES): CCCCCCCCCOC(=O)C(CCSC)n1nn[nH]c1=S (centres unmarked) [IEM-5]
- Cg /Cb+g (interimage) [3]: 1.39
- Relative Speed (green layer) [3]: 0.96

Structure (SMILES): CCCCCCCCOC(=O)CSCCn1nn[nH]c1=S [IEM-6]
- Cg /Cb+g (interimage) [3]: 1.31
- Relative Speed (green layer) [3]: 0.99

Structure (SMILES): CCCCOC(=O)CSCCn1nn[nH]c1=S [IEM-7]
- Cg /Cb+g (interimage) [3]: 1.75
- Relative Speed (green layer) [3]: 0.95

Structure (SMILES): CCCCCCCOC(=O)C(CCC)n1nn[nH]c1=S (centres unmarked) [IEM-8]
- Cg /Cb+g (interimage) [3]: 2.02
- Relative Speed (green layer) [3]: 0.91

Structure (SMILES): CCCCCC(=O)Nc1cccc(-n2nn[nH]c2=S)c1 [IEM-9]
- Cg /Cb+g (interimage) [3]: 2.20
- Relative Speed (green layer) [3]: 0.91

Structure (SMILES): CCCCCCCC(=O)Nc1cccc(-n2nn[nH]c2=S)c1 [IEM-10]
- Cg /Cb+g (interimage) [3]: 1.96
- Relative Speed (green layer) [3]: 0.91

Structure (SMILES): CCCCCCCCCCC(=O)Nc1cccc(-n2nn[nH]c2=S)c1 [IEM-11]
- Cg /Cb+g (interimage) [3]: 1.29
- Relative Speed (green layer) [3]: 0.99
